Measured values published in PubChem BioAssay (NCI).
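Five compound concentrations were applied to cells in 96-well plates for 48 hours; endpoints were derived by simple linear interpolation of the resulting dose-response curve. GI50: concentration for 50% inhibition of growth. The concentration for full growth arrest is given as TGI.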

Assays:
Test in all cases: NCI-60 cell line screen, 48 h
[1] = system: EKVX NSCLC
[2] = system: OVCAR-4 ovarian
[3] = system: OVCAR-5 ovarian
[4] = system: SN12C renal
[5] = system: SK-MEL-5 melanoma
[6] = system: RPMI-8226 leukemia
[7] = system: SNB-75 CNS
[8] = system: SK-OV-3 ovarian
[9] = system: HOP-62 NSCLC
[10] = system: 786-0 renal

| SMILES | TGI [1] | TGI [2] | TGI [3] | TGI [4] | TGI [5] | TGI [6] | TGI [7] | TGI [8] | TGI [9] | TGI [10] | GI50 [1] | GI50 [2] | GI50 [3] | GI50 [4] | GI50 [5] | GI50 [6] | GI50 [7] | GI50 [8] | GI50 [9] | GI50 [10] |
| --- | --- | --- | --- | --- | --- | --- | --- | --- | --- | --- | --- | --- | --- | --- | --- | --- | --- | --- | --- | --- |
| COC(=O)C1C(=O)C(C(=O)OC)C2CCC1N2C (stereo not given) | > 100 µM | > 100 µM | > 100 µM | > 100 µM | > 100 µM | > 100 µM | > 100 µM | > 100 µM | > 100 µM | > 100 µM | – | – | – | – | – | – | – | – | – | – |
| CS(=O)(=O)ON1C(=O)c2ccc(N)cc2C1=O | > 100 µM | > 100 µM | > 100 µM | > 100 µM | > 100 µM | 61.5 µM | > 100 µM | > 100 µM | > 100 µM | > 100 µM | – | – | – | – | – | – | – | – | – | – |
| CCN(CC)CCOc1ccc(/C(=C(\C)Cc2ccc(OC)cc2)c2ccc(O)cc2)cc1 | 6.19 µM | 9.91 µM | 6.79 µM | 3.03 µM | 3 µM | 3.88 µM | 3.38 µM | 7.38 µM | 3.81 µM | 3 µM | 2.08 µM | 2.95 µM | 2.36 µM | 1.53 µM | 1.63 µM | 1.79 µM | 1.58 µM | 2.48 µM | 1.89 µM | 1.59 µM |
| COc1ccc(N=Nc2c(-c3ccccc3)nn(C(=O)CC(=O)Nc3ccc(OC)cc3)c2-c2ccccc2)cc1 | > 100 µM | > 100 µM | > 100 µM | > 100 µM | > 100 µM | > 100 µM | 37.9 µM | > 100 µM | > 100 µM | > 100 µM | – | – | – | – | – | – | – | – | – | – |
| CN1CCC(=C(c2ccc(Cl)cc2)c2ccccn2)CC1 | > 100 µM | > 100 µM | > 100 µM | > 100 µM | > 100 µM | > 100 µM | > 100 µM | > 100 µM | > 100 µM | > 100 µM | > 100 µM | > 100 µM | > 100 µM | > 100 µM | 50.7 µM | > 100 µM | 31 µM | 61.9 µM | > 100 µM | > 100 µM |
| CCN(CC)Cc1cc(Nc2ccnc3ccc(OC)cc23)ccc1O | 38.8 µM | 11.6 µM | 28 µM | 20.6 µM | 6.31 µM | 15.1 µM | 18.8 µM | 34.5 µM | 18.4 µM | 18.8 µM | 5.16 µM | 2.54 µM | 3.95 µM | 3.57 µM | 2.46 µM | 3.97 µM | 4.88 µM | 7.15 µM | 3.8 µM | 4.67 µM |
| N#C/C(=C\c1ccc(O)c(O)c1)C(=O)NCc1cccc(C(F)(F)F)c1 | 39.8 µM | 74.4 µM | 55 µM | 31.1 µM | 19.3 µM | > 100 µM | 59.2 µM | 75.6 µM | 42.2 µM | 45.5 µM | 13.7 µM | 15.1 µM | 19.6 µM | 11.3 µM | 5.29 µM | 10.2 µM | 13.6 µM | 24.1 µM | 13.4 µM | 19 µM |
| COc1ccc(-c2cc(-c3ccc(Cl)cc3)nc(SCCCC(=O)NO)n2)cc1OC | 8.89 µM | 12.3 µM | 4.36 µM | 5.64 µM | 2.4 µM | 7.44 µM | 6.31 µM | 4.58 µM | 6.87 µM | 2.68 µM | 1.04 µM | 0.889 µM | 0.931 µM | 0.819 µM | 1.03 µM | 0.946 µM | 1.49 µM | 1.54 µM | 1.01 µM | 0.591 µM |
| CCNCCS(=O)(=O)NC[C@@]1(c2ccccc2)SC(NC(=O)C(C)(C)C)=NN1C(=O)C(C)(C)C | > 100 µM | > 100 µM | > 100 µM | > 100 µM | 20.3 µM | > 100 µM | > 73.8 µM | > 100 µM | > 100 µM | > 100 µM | < 0.0314 µM | 35.5 µM | 0.138 µM | < 0.01 µM | < 0.01 µM | < 0.01 µM | < 0.0137 µM | < 0.01 µM | 0.0353 µM | 0.341 µM |
| CC(C)(Oc1cccc(N2CCC[C@@H](C(=O)N(Cc3ccc(-c4cn[nH]c4)cc3)C3CC3)C2)c1)C(=O)N1CCNCC1 | 27.9 µM | 25.2 µM | 32.2 µM | 25.3 µM | 22.1 µM | 31.3 µM | 18.3 µM | 33.6 µM | 28.5 µM | 25 µM | 13.7 µM | 11.1 µM | 16.6 µM | 12.1 µM | 10.3 µM | 7.11 µM | 1.56 µM | 16.9 µM | 13.3 µM | 11.7 µM |
